Results as given in patent US20220324835A1 (Nurix Therapeutics, Inc., priority 2018, published 2022).
Where two headings read alike, the source gives them in different places.

Key:
Cbl-b [1] = biological target: T1, Cbl-b (Homo sapiens, UniProt Q13191); assay: Cbl-b inhibition assay (Cbl-b activity assay, FRET, Biological Example 1; 100 mM NaCl, 60 nM Src kinase); type: biochemical; settings: upper bound stated in text lists; read-out: IC50 values in the Cbl-b inhibition assay of Biological Example 1
T1 sequence (Q13191 36-427): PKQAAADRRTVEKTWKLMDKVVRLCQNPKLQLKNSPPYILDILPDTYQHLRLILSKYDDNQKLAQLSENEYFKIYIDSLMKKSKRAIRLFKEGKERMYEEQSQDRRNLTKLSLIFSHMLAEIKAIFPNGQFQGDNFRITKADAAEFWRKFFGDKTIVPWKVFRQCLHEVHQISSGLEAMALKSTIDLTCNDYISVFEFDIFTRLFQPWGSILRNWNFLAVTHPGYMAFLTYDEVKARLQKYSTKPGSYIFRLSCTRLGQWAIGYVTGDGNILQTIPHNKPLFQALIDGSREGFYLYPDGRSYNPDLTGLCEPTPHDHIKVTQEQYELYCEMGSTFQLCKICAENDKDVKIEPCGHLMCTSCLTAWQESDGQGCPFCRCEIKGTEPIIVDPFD
Method in brief: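 Here, the E2 UbcH5B, irreversibly linked to Bodipy-fluorescein ubiquitin, binds Cbl-b once Src kinase phosphorylates it; Cbl-b carries an N-terminal biotinylated Avi-tag captured by streptavidin-terbium. An absent FRET signal indicates inhibition.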

T-cell [2] = assay: IL-2 secretion from T-cells co-stimulated with anti-CD3 and anti-CD28 antibody (Biological Example 2); type: cell-based, human; settings: Homo sapiens, T-cell, primary human total T-cells, baseline = anti-CD3/anti-CD28 stimulated cells without inhibitor, read-out: IL-2 secretion, Anti-CD3/Anti-CD28 stimulation, fold change over baseline; for fold induction at 0.3 µM: 0.3 μM compound; for fold induction at 1 µM: 1 μM compound; for fold induction at 4 µM: 4 μM compound
Method in brief: (§1)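 T-cells were stimulated with anti-CD3 antibody alone or with anti-CD28 antibody, in the presence or absence of Cbl-b inhibitor. IL-2 secretion or CD25 surface staining was measured, and values expressed as fold over the uninhibited baseline […].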

T-cell [3] = assay: CD25 cell surface staining on T-cells co-stimulated with anti-CD3 and anti-CD28 antibody (Biological Example 2); type: cell-based, human; settings: Homo sapiens, T-cell, primary human total T-cells, baseline = anti-CD3/anti-CD28 stimulated cells without inhibitor, read-out: CD25 staining, Anti-CD3/Anti-CD28 stimulation, fold change over baseline; for fold induction at 0.3 µM: 0.3 μM compound; for fold induction at 1 µM: 1 μM compound; for fold induction at 4 µM: 4 μM compound
Method in brief: as §1

Cbl-b [4] = biological target: T1, Cbl-b; assay: Cbl-b activity assay (Cbl-b inhibition assay), TR-FRET of Cbl-b interaction with UbcH5B-Ub; type: biochemical; settings: assay buffer with 100 mM NaCl, 60 nM Src kinase; read-out: Cbl-b activity IC50
Method in brief: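 UbcH5B (C85K) conjugated to N-terminally Bodipy-Fluorescein-labeled ubiquitin served as the fluorescent partner. After compound preincubation, Src kinase (60 nM) with 1 mM ATP and 5 mM MgCl2 (final) was added for 1.5 h, followed by a further 1 h incubation. Some values were obtained with 50 mM NaCl and 30 nM Src.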

T-cell [5] = assay: IL-2 secretion from T-cells stimulated with anti-CD3 antibody alone (Biological Example 2); type: cell-based; settings: primary human total T-cells, read-out: IL-2 secretion, Anti-CD3 stimulation, fold change over baseline; for fold induction at 1 µM: 1 μM compound; for fold induction at 8 µM: 8 μM compound
T-cell [6] = assay: CD25 cell surface staining on T-cells stimulated with anti-CD3 antibody alone (Biological Example 2); type: cell-based; settings: primary human total T-cells, baseline = anti-CD3/anti-CD28 stimulated cells without inhibitor, read-out: CD25 staining, Anti-CD3 stimulation, fold change over baseline; for fold induction at 1 µM: 1 μM compound; for fold induction at 8 µM: 8 μM compound
primary human NK cells = assay: NK cell activation assessed by cytokine secretion (coculture with K562 NucRed target cells); type: cell-based
Description: Peripheral blood mononuclear cells (PBMC) were obtained either: 1) by using Ficoll-Paque™ (GE Healthcare) for separation of peripheral blood hematopoietic cells from buffy coats of healthy human donors; or 2) directly from LeukoPak donations. […] The cells were cultured overnight with IL-2 (60 ng/mL) at 37° C. 5% CO2. Cbl-b inhibitors were added 1 hour prior to stimulation and incubated at 37° C. 5% CO2 at a specific concentration (e.g., 10 μM, 1 μM, or 0.1 μM) with a final DMSO concentration of <0.1%. NK cells were co-cultured with target cells that were engineered to have a red nucleus (K562 NucRed) measurable by flow cytometry. […] The cells were mixed at the indicated ratios (e.g., 5:1, 1:1, or 1:5) of NK (effector cells) to K562 NucRed (target cells) for 6 hours. Cell free supernatants were collected and analyzed for cytokine secretion (e.g. TNFα, IFNγ, or MIP1β) by ELISA or Luminex multiplex kits following the manufacturer's protocol. IFNγ secretion was assessed using an R&D Systems ELISA kit (Catalog #DY285), TNFα secretion was assessed using an R&D Systems ELISA kit (Catalog #DY210), and MIP1β secretion was assessed using an R&D Systems ELISA kit (Catalog #DY271).
Readouts were reported as fold change over baseline. Baseline for this study was the measurement obtained from primary human NK effector cells cocultured with K562 NucRed target cells in the absence of a Cbl-b inhibitor. For NK cells cocultured with K562 NucRed cells, changes greater than 2.0-fold over baseline for cytokine secretion were considered a positive response (Table 10a and 10b).

[7] = K562, 1:1 E/T, read-out: IFNγ secretion
[8] = K562, 1:1 E/T, read-out: MIP1β secretion
[9] = K562, 1:1 E/T, read-out: TNFα secretion
[10] = K562, 5:1 E/T, read-out: IFNγ secretion
[11] = K562, 5:1 E/T, read-out: MIP1β secretion
[12] = K562, 5:1 E/T, read-out: TNFα secretion

SMILES	fold induction at 0.3 µM (T-cell [2])	fold induction at 1 µM (T-cell [2])	fold induction at 0.3 µM (T-cell [3])	fold induction at 1 µM (T-cell [3])	IC50 (Cbl-b [4]) [µM]	fold induction at 1 µM (T-cell [5])	fold induction at 1 µM (T-cell [6])	fold induction at 4 µM (T-cell [2])	fold induction at 4 µM (T-cell [3])	fold induction at 8 µM (T-cell [5])	fold induction at 8 µM (T-cell [6])	further results
Cn1cnnc1CC1(c2cccc(N3Cc4c(cc(CN5CC[C@H]6C[C@H]65)cc4C(F)(F)F)C3=O)c2)COC1 (single isomer, unassigned) [Compound 486a]	> 7.5	> 7.5	1.51 to 1.75	1.51 to 1.75	< 0.1	> 0.201	> 1	–	–	–	–	IC50 (Cbl-b [1]): ≤ 0.1 µM
Cn1cnnc1C(F)(F)[C@](C)(F)c1cccc(N2Cc3c(cc(C(=O)N4CC(C(F)F)C4)cc3C(F)(F)F)C2=O)c1 [Compound 439, (R)-6-(3-(difluoromethyl)azetidine-1-carbonyl)-2-(3-(1,1,2-trifluoro-1-(4-methyl-4H-1,2,4-triazol-3-yl)propan-2-yl)phenyl)-4-(trifluoromethyl)isoindolin-1-one]	1.01 to 2.5	1.01 to 2.5	1.01 to 1.3	1.01 to 1.3	0.301 to 1	0.051 to 0.1	0.601 to 0.8	1.01 to 2.5	1.01 to 1.3	0.051 to 0.1	0.801 to 1	–
CC(Cc1nncn1C)c1cc(C2CCC2)cc(N2Cc3c(cccc3C(F)(F)F)C2=O)c1 (stereo not drawn) [Compound 476, 2-(3-cyclobutyl-5-(1-(4-methyl-4H-1,2,4-triazol-3-yl)propan-2-yl)phenyl)-4-(trifluoromethyl)isoindolin-1-one]	1.01 to 2.5	1.01 to 2.5	1.01 to 1.3	1.01 to 1.3	0.301 to 1	0.051 to 0.1	0.601 to 0.8	1.01 to 2.5	1.01 to 1.3	0.051 to 0.1	0.801 to 1	–
C[C@@H](c1cccc(N2Cc3c(cccc3C(F)(F)F)C2=O)c1)C(F)c1nncn1C (stereo in doubt) [Compound 474, 2-(3-((1S, 2S)-1-fluoro-1-(4-methyl-4H-1,2,4-triazol-3-yl)propan-2-yl)phenyl)-4-(trifluoromethyl)isoindolin-1-one]	1.01 to 2.5	1.01 to 2.5	1.01 to 1.3	1.01 to 1.3	–	0.051 to 0.1	0.601 to 0.8	2.51 to 5	1.01 to 1.3	> 0.201	> 1	–
C[C@@H](Sc1nncn1C)c1cccc(NC(=O)c2ccc3ccccc3n2)c1 [Compound 9b, (R)-N-(3-(1-((4-methyl-4H-1,2,4-triazol-3-yl)thio)ethyl)phenyl)quinoline-2-carboxamide]	–	–	–	–	–	–	–	–	–	–	–	fold induction at 1 µM (primary human NK cells; [7]): < 1; fold induction at 1 µM (primary human NK cells; [8]): 1.01 to 2; fold induction at 1 µM (primary human NK cells; [9]): < 1; fold induction at 10 µM (primary human NK cells; [7]): < 1; fold induction at 10 µM (primary human NK cells; [8]): < 1; fold induction at 10 µM (primary human NK cells; [9]): < 1; fold induction at 1 µM (primary human NK cells; [10]): < 1; fold induction at 1 µM (primary human NK cells; [11]): < 1; fold induction at 1 µM (primary human NK cells; [12]): < 1; fold induction at 10 µM (primary human NK cells; [10]): < 1; fold induction at 10 µM (primary human NK cells; [11]): < 1; fold induction at 10 µM (primary human NK cells; [12]): < 1
C[C@@H](c1cccc(N2Cc3c(cccc3C(F)(F)F)C2=O)c1)[C@H](F)c1nncn1C (racemic) [Compound 473, 2-(3-((1S,2S and 1R,2R)-1-fluoro-1-(4-methyl-4H-1,2,4-triazol-3-yl)propan-2-yl)phenyl)-4-(trifluoromethyl)isoindolin-1-one]	1.01 to 2.5	1.01 to 2.5	1.01 to 1.3	1.01 to 1.3	0.301 to 1	0.051 to 0.1	0.601 to 0.8	2.51 to 5	1.01 to 1.3	0.151 to 0.2	> 1	–
Cn1cnnc1C(F)(F)[C@@](C)(F)c1cccc(N2Cc3c(cc(CN4CC[C@H](F)C4)cc3C(F)(F)F)C2=O)c1 [Compound 449, 6-(((S)-3-fluoropyrrolidin-1-yl)methyl)-2-(3-((S)-1,1,2-trifluoro-1-(4-methyl-4H-1,2,4-triazol-3-yl)propan-2-yl)phenyl)-4-(trifluoromethyl)isoindolin-1-one]	< 1	< 1	< 1	< 1	0.301 to 1	0.051 to 0.1	0.601 to 0.8	1.01 to 2.5	1.01 to 1.3	0.051 to 0.1	0.801 to 1	–
Cn1cnnc1[C@@H](F)[C@](C)(F)c1cccc(N2Cc3c(cc(C4CC4)cc3C(F)(F)F)C2=O)c1 (stereo in doubt) [Compound 482, 6-cyclopropyl-2-[3-[(1R,2R)-1,2-difluoro-1-(4-methyl-4H-1,2,4-triazol-3-yl)propan-2-yl]phenyl]-4-(trifluoromethyl)-2,3-dihydro-1H-isoindol-1-one]	< 1	1.01 to 2.5	1.01 to 1.3	1.01 to 1.3	0.301 to 1	0.051 to 0.1	0.601 to 0.8	1.01 to 2.5	1.01 to 1.3	0.051 to 0.1	0.801 to 1	–
Cn1cnnc1C(F)[C@](C)(F)c1cccc(N2Cc3c(cccc3C(F)(F)F)C2=O)c1 (stereo in doubt) [Compound 478a, 2-(3-((1S,2R)-1,2-difluoro-1-(4-methyl-4H-1,2,4-triazol-3-yl)propan-2-yl)phenyl)-4-(trifluoromethyl)isoindolin-1-one]	< 1	< 1	< 1	< 1	0.301 to 1	< 0.05	< 0.6	< 1	1.01 to 1.3	0.051 to 0.1	0.601 to 0.8	–
